Data set [1] addresses T1, CCR2 (Homo sapiens, UniProt P41597).
T1 sequence (P41597 1-360 isoform P41597-2): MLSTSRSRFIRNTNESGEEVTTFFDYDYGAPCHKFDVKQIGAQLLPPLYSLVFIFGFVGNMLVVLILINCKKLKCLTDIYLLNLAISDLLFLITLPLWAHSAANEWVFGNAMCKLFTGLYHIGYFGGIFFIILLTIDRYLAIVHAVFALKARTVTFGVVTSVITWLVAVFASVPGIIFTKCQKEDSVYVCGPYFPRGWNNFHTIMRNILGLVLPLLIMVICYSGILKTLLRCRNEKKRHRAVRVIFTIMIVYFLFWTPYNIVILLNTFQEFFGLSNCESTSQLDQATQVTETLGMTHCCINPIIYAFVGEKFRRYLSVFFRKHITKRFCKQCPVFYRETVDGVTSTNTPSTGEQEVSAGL
Nature of the data set: Chemotaxis assay: MCP-1 induced migration of THP-1 cells. The class given is cell-based. As to conditions: 3 nM MCP-1, 37° C. for 2 hr, read-out: Inhibition of cell chemotaxis, IC50. More on the design: endogenous in cells; host or cells: THP-1 cells. Here is the method:
Antagonism of CCR2 function is determined by a chemotaxis assay. MCP-1 is prepared in buffer (Hanks+0.1% human serum albumin) at 3 nM concentration and aliquoted into the bottom chambers of a 96-well chemotaxis plate (Neuroprobe). THP-1 cells are suspended in the same buffer at 1×10^7 cells/ml and compound added at various concentrations to the aliquots of cells. The cell and compound mixture is added to the top of the polycarbonate membrane (5 μm pore diameter) and the chemotaxis plate incubated at 37° C. for 2 hr. After the unmigrated cells are scraped off the top of the filter, the plate is gently centrifuged and the membrane removed. Cells which migrate to the bottom chamber are quantitated by counting with a hemacytometer. Spontaneous chemotaxis is determined by measuring cell migration in the absence of chemokine. Chemotaxis of a positive control is determined by measuring cell migration without compound. Inhibition of cell chemotaxis is determined as an IC50.

Data set [2] concerns the target T1, CCR2. Nature of the data set: Binding assay: inhibition of 125I-MCP-1 binding to THP-1 cells. More on the design: CCR2 is also expressed in the human monocytic cell line THP-1; endogenous in cells; host or cells: THP-1 (human monocytic cell line), whole cells. The settings on record: THP-1 cells, 0.1 nM 125I-MCP-1, 1 hr at room temperature; read-out: Inhibition of 125I-MCP-1 binding to THP-1 cells, IC50. Here is the method: Antagonism of the CCR2 receptor is determined by a binding assay using the human monocytic cell line THP-1. Cells are suspended in assay buffer (RPMI+1% BSA+25 mM HEPES) at 3×10^6 cells/ml and an aliquot (180 μl) added to a 0.5 ml siliconized Eppendorf tube. […] After incubation for 1 hr at room temperature, the cell suspension is centrifuged through oil and the cell pellets counted to quantitate cell-bound ligand. Nonspecific (NS) binding of radioligand is determined by the addition of 100 nM cold MCP-1. Control binding is determined by the addition of buffer without compound.

pIC50: −log10 of the molar value. Bounds are passed on as bounds.

As to `CC(=O)C1=C(O)C(=O)N(c2ccc(C)cc2)C1C1CCCCC1` (racemic) [Compound 10, 4-acetyl-5-cyclohexyl-3-hydroxy-1-(4-methylphenyl)-1,5-dihydro-2H-pyrrol-2-one], the pIC50 in data set [1] and in data set [2] was at least 5.30 each time.

Regarding `CC(=O)C1=C(O)C(=O)N(c2ccc(Cl)cc2)[C@@H]1C12CC3CC(CC1C3)C2` [Compound 156, (R)-4-acetyl-1-(4-chlorophenyl)-3-hydroxy-5-tricyclo[3.3.1.0˜3,7˜]non-3-yl-1,5-dihydro-2H-pyrrol-2-one], the pIC50 in data set [1] and in data set [2] was at least 5.30 each time.

On to `CC(=O)C1=C(O)C(=O)N(c2ccc(Cl)cc2)C1C1CCCCC1` (racemic) [Compound 24, 4-acetyl-1-(4-chlorophenyl)-5-cyclohexyl-3-hydroxy-1,5-dihydro-2H-pyrrol-2-one], for which the pIC50 in data set [1] and in data set [2] was at least 5.30 each time.

Regarding `CC(=O)C1=C(O)C(=O)N(c2ccc(Cl)c(C)c2)C1C1CCCC1` (racemic) [Compound 69, 4-acetyl-1-(4-chloro-3-methylphenyl)-5-cyclopentyl-3-hydroxy-1,5-dihydro-2H-pyrrol-2-one], the pIC50 in data set [1] and in data set [2] was at least 5.30 each time.

For `CC(=O)C1=C(O)C(=O)N(c2ccc(Cl)c(C)c2)C1C1CCCCC1` (racemic) [Compound 53, 4-acetyl-1-(4-chloro-3-methylphenyl)-5-cyclohexyl-3-hydroxy-1,5-dihydro-2H-pyrrol-2-one], the pIC50 in data set [1] and in data set [2] was at least 5.30 throughout.

As to `CCOC(=O)OC1=C(C(C)=O)[C@@H](C2CCCCC2)N(c2ccc(Cl)cc2F)C1=O` [Compound P1, (5R)-4-acetyl-1-(4-chloro-2-fluorophenyl)-5-cyclohexyl-2-oxo-2,5-dihydro-1H-pyrrol-3-yl ethyl carbonate], the melting point (usually the temperature, or range, at which the solid turns liquid) was determined as 74 °C.

As for `CC(=O)C1=C(O)C(=O)N(c2ccc(C)cc2)C1C1CC2C=CC1C2` (stereo not drawn) [Compound 79, 4-acetyl-5-bicyclo[2.2.1]hept-5-en-2-yl-3-hydroxy-1-(4-methylphenyl)-1,5-dihydro-2H-pyrrol-2-one], the pIC50 (as a rule, the negative decadic logarithm of the IC50, by convention in mol/L) in data set [2] was at least 5.30.
